Data set [1] relates to HT-29. The experiment in a line: Antiproliferative activity against human HT-29 cells. In kind it is functional, cell-based.
A further data set relates to EL4. The experiment in a line: Antiproliferative activity against mouse EL4 cells. In kind it is functional, cell-based.
Data set [2] concerns MCF7. The data set is described as follows: Anticancer activity against human MCF7 cells. It counts as functional, cell-based.
For data set [3], the system named is HL-60. The data set is described as follows: Antiproliferative activity against human HL-60 cells assessed as reduction in cell viability measured after 72 hrs. It counts as functional, cell-based. To be noted: HL-60, 72 h.
Another data set concerns NCI-H460. The experiment in a line: Antiproliferative activity against human NCI-H460 cells. It counts as functional, cell-based.
Data set [4] deals with HT-29. The experiment in a line: Antiproliferative activity against human HT-29 cells assessed as reduction in cell viability. It counts as functional, cell-based.
The test system of the next data set is A-431. The experiment in a line: Antiproliferative activity against human A-431 cells. In kind it is functional, cell-based.
The subject of a further data set is A549. The data set is described as follows: Antiproliferative activity against human A549 cells. It counts as functional, cell-based.
Another data set has as its system MDA-MB-231. The data set is described as follows: Antiproliferative activity against human MDA-MB-231 cells. It counts as functional, cell-based. Conditions: mda-mb-231.
The next data set relates to COLO 205. The experiment in a line: Antiproliferative activity against human COLO 205 cells. In kind it is functional, cell-based.
A short description of data set [5]: Antiproliferative activity against mouse P388 cells assessed as reduction in cell viability measured after 72 hrs. It counts as functional, cell-based. Conditions: 72 h.
In a further data set the test system is K562. The data set is described as follows: Antiproliferative activity against human K562 cells. It counts as functional, cell-based.
For data set [6], the system named is P388/ADR. The data set is described as follows: Antiproliferative activity against mouse P388/ADR cells assessed as reduction in cell viability measured after 72 hrs. It counts as functional, cell-based. Conditions: 72 h.
The subject of the next data set is SMMC-7721. The experiment in a line: Antiproliferative activity against human SMMC-7721 cells. It counts as functional, cell-based.
The subject of another data set is HEK293. The experiment in a line: Antiproliferative activity against human HEK293 cells. It counts as functional, cell-based.
In data set [7] the test system is HL-60. The experiment in a line: Anticancer activity against human HL-60 cells. It counts as functional, cell-based.
The next data set concerns PC-3. The experiment in a line: Antiproliferative activity against human PC-3 cells. In kind it is functional, cell-based.
The nature of data set [8]: Antiproliferative activity against human U-87 MG cells. It counts as functional, cell-based, U-87MG ATCC.
Data set [9] deals with P388. The experiment in a line: Anticancer activity against mouse P388 cells. It counts as functional, cell-based.
A short description of data set [10]: Anticancer activity against human Lu1 cells. In kind it is functional, cell-based.
The test system of data set [11] is MCF7. The experiment in a line: Anticancer activity against human MCF7 cells assessed as inhibition of cell growth. In kind it is functional, cell-based.
A further data set deals with DLD-1. The data set is described as follows: Cytotoxicity against human DLD-1 cells assessed as cell growth inhibition measured after 48 hrs by MTT assay. In kind it is functional. Background: Tetrazolium dyes change colour on reduction, which living cells bring about.
The subject of another data set is A 172. The experiment in a line: Cytotoxicity against human A-172 cells assessed as cell growth inhibition measured after 48 hrs by MTT assay. In kind it is functional.
The next data set deals with Ca9-22. The experiment in a line: Cytotoxicity against human Ca9-22 cells. It counts as functional, cell-based.
Data set [12] in a line: Cytotoxicity against human U87 cells assessed as cell growth inhibition measured after 48 hrs by MTT assay. In kind it is functional, U-87MG ATCC. To be noted: U-87 MG.
Another data set concerns B16. The experiment in a line: Cytotoxicity against mouse B16 cells assessed as cell growth inhibition measured after 48 hrs by MTT assay. It counts as functional.
The next data set relates to SiHa. The data set is described as follows: Cytotoxicity against human SiHa cells assessed as cell growth inhibition measured after 48 hrs by MTT assay. In kind it is functional.
A further data set has as its system HSC-2. The data set is described as follows: Cytotoxicity against human HSC-2 cells. In kind it is functional, cell-based.
The subject of data set [13] is HeLa. The experiment in a line: Cytotoxicity against human HeLa cells assessed as cell growth inhibition measured after 48 hrs by MTT assay. It counts as functional.
The test system of the next data set is HepG2. The data set is described as follows: Antiproliferative activity against human HepG2 cells. It counts as functional, cell-based.
For data set [14], the system named is HL-60. The experiment in a line: Antiproliferative activity against human HL-60 cells. It counts as functional, cell-based.
Data set [15] relates to TK-10. The experiment in a line: Anticancer activity against human TK-10 cells assessed as total growth inhibition. It counts as functional.
Data set [16] can be described thus: Blood clearance in rat at 100 mg/kg, po. It counts as ADME, organism-based.
The subject of data set [17] is UACC-62. The data set is described as follows: Anticancer activity against human UACC-62 cells. It counts as functional, cell-based.
Data set [18] in a line: Cytotoxicity against CHO cells. In kind it is toxicity, cell-based, Cricetulus griseus. Conditions: Chinese hamster.
Data set [19] has as its system TK-10. The data set is described as follows: Anticancer activity against human TK-10 cells. It counts as functional, cell-based.
Data set [20] relates to MCF7. The data set is described as follows: Anticancer activity against human MCF7 cells assessed as total growth inhibition. It counts as functional.
The subject of data set [21] is UACC-62. The data set is described as follows: Anticancer activity against human UACC-62 cells assessed as total growth inhibition. In kind it is functional.
Data set [22] concerns P388. The experiment in a line: Potency index, ratio of test compound IC50 to dihydroartemisinin IC50 for antiproliferative activity against mouse P388 cells assessed as reduction in cell viability measured after 72 hrs. In kind it is functional.
For data set [23], the system named is P388/ADR. The experiment in a line: Potency index, ratio of test compound IC50 to dihydroartemisinin IC50 for antiproliferative activity against mouse P388/ADR cells assessed as reduction in cell viability measured after 72 hrs. In kind it is functional.
Data set [24] deals with MCF7. The experiment in a line: Antiproliferative activity against doxorubicin resistant human MCF7 cells. In kind it is functional, cell-based.
The subject of data set [25] is HL-60. The experiment in a line: Potency index, ratio of test compound IC50 to dihydroartemisinin IC50 for antiproliferative activity against human HL-60 cells assessed as reduction in cell viability measured after 72 hrs. In kind it is functional.
Data set [26] concerns HeLa. The data set is described as follows: Antiproliferative activity against human HeLa cells. It counts as functional, cell-based.
The test system of a further data set is HCT-116. The experiment in a line: Antiproliferative activity against human HCT-116 cells. In kind it is functional, cell-based.
Data set [27] can be described thus: Antiproliferative activity against human 1205Lu cells. It counts as functional, cell-based.

Converted amounts (≈) assume the structure as drawn. “And” between values parts separate entries of the source, which are not always exact repeats. Equal values may be shown once.

With `C[C@H]1[C@@H](CCSCC[C@H]2O[C@@H]3O[C@@]4(C)CC[C@H]5[C@H](C)CC[C@@H]([C@H]2C)[C@@]35OO4)O[C@@H]2O[C@@]3(C)CC[C@H]4[C@H](C)CC[C@@H]1[C@@]24OO3`, the IC50 with HT-29 [1], in the data set on EL4 and in the data set on MCF7 [2] was 17 nM throughout.
Take `C[C@H]1[C@@H](O)O[C@@H]2O[C@@]3(C)CC[C@H]4[C@H](C)CC[C@@H]1[C@@]24OO3` [ARTENIMOL]: the IC50 is 299 nM in the data set with HL-60 [3]; 5290 nM in the data set with NCI-H460; 5290 nM in the data set on HT-29 [4]; 15700 nM in the data set with A-431; 5290 nM in the data set with A549; 15700 nM and 5290 nM in the data set with MDA-MB-231. Moreover, the IC50 came out at 15700 nM in the data set with COLO 205; 1500 nM in [5]; 15700 nM with K562; 20700 nM with P388/ADR [6]; 400 nM in the data set on SMMC-7721; 15700 nM in the data set with HEK293. The IC50 with HL-60 [7] stood at 39900 nM; with PC-3, 15700 nM; in [8] it was 5290 nM; with P388 [9], 39900 nM; in data set [10], 39900 nM; with MCF7 [2], 39900 nM. Besides, the IC50 in the data set with MCF7 [11] stood at 39900 nM.
For `C[C@H]1[C@H](CCS(=O)(=O)CCCS(=O)(=O)CC[C@H]2O[C@@H]3O[C@@]4(C)CC[C@H]5[C@H](C)CC[C@@H]([C@H]2C)[C@@]35OO4)O[C@@H]2O[C@@]3(C)CC[C@H]4[C@H](C)CC[C@@H]1[C@@]24OO3`, the IC50 with HT-29 [1], with EL4 and in the data set on MCF7 [2] was 380 nM in each case.
`CC(=O)O[C@H]1C(=O)[C@@]2(C)[C@H]([C@H](OC(=O)c3ccccc3)[C@]3(O)C[C@H](OC(=O)[C@H](O)[C@@H](NC(=O)c4ccccc4)c4ccccc4)C(C)=C1C3(C)C)[C@]1(OC(C)=O)CO[C@@H]1C[C@@H]2O` [PACLITAXEL]: the GI50 (in the data set on DLD-1; with A 172; in [12]; in the data set with B16; in the data set on SiHa; in the data set with HeLa [13]) was 10 nM each time. The values for the half-inhibitory concentration (IC50) in the data set with Ca9-22, in the data set with HSC-2 and with MCF7 [2] were more than 100000 nM, more than 100000 nM and more than 40000 nM, respectively.
Take `C[C@H]1[C@@H](NC(=O)CCCCCCC(=O)NO)O[C@@H]2O[C@@]3(C)CC[C@H]4[C@H](C)CC[C@@H]1[C@@]24OO3` (racemic): the concentration for half-maximal inhibition (IC50) turned out to be 1.28 µg/mL (≈ 2.82 µM) with HepG2, 1.28 µg/mL with MCF7 [2] and 1.28 µg/mL (≈ 2.82 µM) with HL-60 [14].
As to `C[C@H]1[C@@H](OCCN(CCCNc2ccnc3cc(Cl)ccc23)CCO[C@H]2O[C@@H]3O[C@@]4(C)CC[C@H]5[C@H](C)CC[C@@H]([C@H]2C)[C@@]35OO4)O[C@@H]2O[C@@]3(C)CC[C@H]4[C@H](C)CC[C@@H]1[C@@]24OO3`, the TGI in the data set on TK-10 [15], with MCF7 [20] and with UACC-62 [21] was 2210 nM in each case. In data set [16], this molecule returned a CL/F of 184 L/h/kg. The GI50 with UACC-62 [17], with TK-10 [19] and in the data set with MCF7 [2] was 30 nM throughout. Besides, in [18], the IC50 came to 680 nM.
With `C[C@H]1[C@@H](Oc2ccc(CCn3ccnn3)cc2)O[C@@H]2O[C@@]3(C)CC[C@H]4[C@H](C)CC[C@@H]1[C@@]24OO3`, the IC50 with HL-60 [3] was 65 nM; in data set [5], 47 nM; in the data set on P388/ADR [6], 2890 nM; in the data set with MCF7 [24] it was 47 nM. Besides, the “Ratio IC50” value in the data set on P388 [22], in the data set with P388/ADR [23] and in the data set with HL-60 [25] was 4.6 throughout.
Take `C[C@H]1[C@@H](CCC(=O)Nc2ccc(F)cc2)O[C@@H]2O[C@]3(C)CC[C@H]4[C@H](C)CC[C@@H]1[C@@]24OO3`: the 50% inhibitory concentration (IC50) (in the data set with HeLa [26]; with HCT-116; in data set [27]) was 40000 nM throughout.
`C[C@H]1[C@@H](NC(=O)CCC(=O)NO)O[C@@H]2O[C@@]3(C)CC[C@H]4[C@H](C)CC[C@@H]1[C@@]24OO3`: the IC50 in the data set with HepG2 came to 1.28 µg/mL (≈ 3.21 µM); in the data set with MCF7 [2] it was 1.28 µg/mL; in the data set with HL-60 [14], 1.28 µg/mL (≈ 3.21 µM).

A word on the IC50: it is the point on the concentration scale where inhibition reaches its midpoint. One may read the GI50 as the concentration at which growth is held to half of that of the control. Broadly, the TGI is the concentration giving total growth inhibition. For orientation: CL/F means clearance divided by bioavailability, as obtained after extravascular dosing.

Source of the values: ChEMBL document CHEMBL5244230, “Artemisinin-derived hybrids and their anticancer activity” (Eur J Med Chem, 2020).
